Patent US8809331B2 (Genentech, Inc., priority 2011, dated 2014)

Each compound was assayed against T1, LRRK2 (Homo sapiens, UniProt Q5S007, G2019S) (assay: In Vitro LRRK2 LabChip Assay (LRRK2 Ki)). Details: Table 5 compounds (formula I).
T1 construct: purchased Invitrogen PV4882
Type: biochemical
Experimental: In Vitro LRRK2 LabChip Assay
This assay was used to determine a compound's potency in inhibiting activity of LRRK2 by determining, Kiapp, IC50, or percent inhibition values. In a polypropylene plate, LRRK2, fluorescently-labeled peptide substrate, ATP and test compound were incubated together. Using a LabChip 3000 (Caliper Life Sciences), after the reaction the substrate was separated by capillary electrophoresis into two populations: phosphorylated and unphosphorylated. The relative amounts of each were quantitated by fluorescence intensity. LRRK2 Ki was determined according to the equation: Y=V0*(1−((x+Ki*(1+S/Km)+Et)/(2*Et)−(((x+Ki*(1+S/Km)+Et)^2−(4*Et*x))^0.5)/(2*Et))). Ki values in Table 4 and elsewhere herein are shown in μM.
Assay conditions and materials used were as follows:
LRRK2 Wild type in 5 mM MgCl2: 15 nM (Invitrogen lot #500607F)
Kinase reaction time: 2 hours
Wild type in 5 mM MgCl2: 80 μM
Solid Support: Black 50 μL volume polypropylene 384 well plate (MatriCal cat # MP101-1-PP)
Kinase: LRRK2 G2019S (Invitrogen cat #PV4882). • LRRK2 Wild type (Invitrogen cat #PV4874).
Substrate: 5FAM-[…]-CONH2
Non-binding plate: 384 well clear V-bottom polypropylene plates (Greiner cat #781280).
ATP: 10 mM ATP (Cell Signaling cat #9804).
Coating Reagent #3: Coating Reagent #3 (Caliper).
Complete Reaction Buffer: H2O/25 mM Tris, pH 8.0/5 mM MgCl2/2 mM DTT/0.01% Triton X-100.
Stop Solution: H2O/100 mM HEPES, pH 7.2/0.015% Brij-35/0.2% Coating Reagent #3/20 mM EDTA.
Separation Buffer: H2O/100 mM HEPES, pH 7.2/0.015% Brij-35/0.1% Coating Reagent #3/1:200 Coating Reagent #8/10 mM EDTA/5% DMSO.
Compound Plate Preparation:
For serial dilutions, 34.6 μl DMSO was added to columns 3-24. For the assay controls, 37.5 μl DMSO was added to columns 1 and 2 of rows A and P. a, d and 50 μl 25 μM G-028831 (Staurosporine) was added to columns 1 and 2, row B. For the samples: to start at 100 μM, 37.5 μl DMSO was to columns 1 and 2, then 12.5 μl 10 mM compound; to start at 10 μM, 78 μl DMSO was added to columns 1 & 2, then 2 μl 10 mM compound; and to start at 1 μM, 25 μM compound (2 μl 10 mM cmpd+798 μl DMSO) was added to empty columns 1 and 2. A Precision instrument was used to perform 1:3.16 serial dilutions (“PLK_BM_serial_halflog”).
ATP was diluted to 282.1 μM in Complete Kinase Buffer (final concentration was 130 μM).
Total and Blank Preparation:
In Complete Reaction Buffer, substrate was diluted to 4 μM. Equal volumes of Complete Reaction Buffer and 4 μM substrate were combined to obtain the blank. Equal volumes of Complete Reaction Buffer and 4 μM substrate were combined and to the combined solution was added 2× final LRRK2 concentration.
To a 50 μl polypropylene plate, 5 μl/well buffer/substrate was added by hand to Blank wells. A Biomek FX was used to start the kinase reaction (“PLK SAR 23 ATP”). The following were added to the appropriate wells:
5 μl/well compound/ATP in Assay Plate;
5 μl/well kinase/substrate in Assay Plate;
The plate was incubated for 2 hours in the dark. Biomek FX was used to stop the kinase reaction (“PLK Stop”), and 10 μl/well Stop solution was added to the Assay Plate. Results were read on the LabChip 3000.
The LabChip 3000 was run using the job “LRRK2 IC50” with the following job settings:
Downstream voltage: −500 V
Upstream voltage: −2350 V
Post sample buffer sip time: 75 seconds
Post dye buffer sip time: 75 seconds
Final delay time: 200 seconds

T1 sequence (Q5S007 whole entry G2019S): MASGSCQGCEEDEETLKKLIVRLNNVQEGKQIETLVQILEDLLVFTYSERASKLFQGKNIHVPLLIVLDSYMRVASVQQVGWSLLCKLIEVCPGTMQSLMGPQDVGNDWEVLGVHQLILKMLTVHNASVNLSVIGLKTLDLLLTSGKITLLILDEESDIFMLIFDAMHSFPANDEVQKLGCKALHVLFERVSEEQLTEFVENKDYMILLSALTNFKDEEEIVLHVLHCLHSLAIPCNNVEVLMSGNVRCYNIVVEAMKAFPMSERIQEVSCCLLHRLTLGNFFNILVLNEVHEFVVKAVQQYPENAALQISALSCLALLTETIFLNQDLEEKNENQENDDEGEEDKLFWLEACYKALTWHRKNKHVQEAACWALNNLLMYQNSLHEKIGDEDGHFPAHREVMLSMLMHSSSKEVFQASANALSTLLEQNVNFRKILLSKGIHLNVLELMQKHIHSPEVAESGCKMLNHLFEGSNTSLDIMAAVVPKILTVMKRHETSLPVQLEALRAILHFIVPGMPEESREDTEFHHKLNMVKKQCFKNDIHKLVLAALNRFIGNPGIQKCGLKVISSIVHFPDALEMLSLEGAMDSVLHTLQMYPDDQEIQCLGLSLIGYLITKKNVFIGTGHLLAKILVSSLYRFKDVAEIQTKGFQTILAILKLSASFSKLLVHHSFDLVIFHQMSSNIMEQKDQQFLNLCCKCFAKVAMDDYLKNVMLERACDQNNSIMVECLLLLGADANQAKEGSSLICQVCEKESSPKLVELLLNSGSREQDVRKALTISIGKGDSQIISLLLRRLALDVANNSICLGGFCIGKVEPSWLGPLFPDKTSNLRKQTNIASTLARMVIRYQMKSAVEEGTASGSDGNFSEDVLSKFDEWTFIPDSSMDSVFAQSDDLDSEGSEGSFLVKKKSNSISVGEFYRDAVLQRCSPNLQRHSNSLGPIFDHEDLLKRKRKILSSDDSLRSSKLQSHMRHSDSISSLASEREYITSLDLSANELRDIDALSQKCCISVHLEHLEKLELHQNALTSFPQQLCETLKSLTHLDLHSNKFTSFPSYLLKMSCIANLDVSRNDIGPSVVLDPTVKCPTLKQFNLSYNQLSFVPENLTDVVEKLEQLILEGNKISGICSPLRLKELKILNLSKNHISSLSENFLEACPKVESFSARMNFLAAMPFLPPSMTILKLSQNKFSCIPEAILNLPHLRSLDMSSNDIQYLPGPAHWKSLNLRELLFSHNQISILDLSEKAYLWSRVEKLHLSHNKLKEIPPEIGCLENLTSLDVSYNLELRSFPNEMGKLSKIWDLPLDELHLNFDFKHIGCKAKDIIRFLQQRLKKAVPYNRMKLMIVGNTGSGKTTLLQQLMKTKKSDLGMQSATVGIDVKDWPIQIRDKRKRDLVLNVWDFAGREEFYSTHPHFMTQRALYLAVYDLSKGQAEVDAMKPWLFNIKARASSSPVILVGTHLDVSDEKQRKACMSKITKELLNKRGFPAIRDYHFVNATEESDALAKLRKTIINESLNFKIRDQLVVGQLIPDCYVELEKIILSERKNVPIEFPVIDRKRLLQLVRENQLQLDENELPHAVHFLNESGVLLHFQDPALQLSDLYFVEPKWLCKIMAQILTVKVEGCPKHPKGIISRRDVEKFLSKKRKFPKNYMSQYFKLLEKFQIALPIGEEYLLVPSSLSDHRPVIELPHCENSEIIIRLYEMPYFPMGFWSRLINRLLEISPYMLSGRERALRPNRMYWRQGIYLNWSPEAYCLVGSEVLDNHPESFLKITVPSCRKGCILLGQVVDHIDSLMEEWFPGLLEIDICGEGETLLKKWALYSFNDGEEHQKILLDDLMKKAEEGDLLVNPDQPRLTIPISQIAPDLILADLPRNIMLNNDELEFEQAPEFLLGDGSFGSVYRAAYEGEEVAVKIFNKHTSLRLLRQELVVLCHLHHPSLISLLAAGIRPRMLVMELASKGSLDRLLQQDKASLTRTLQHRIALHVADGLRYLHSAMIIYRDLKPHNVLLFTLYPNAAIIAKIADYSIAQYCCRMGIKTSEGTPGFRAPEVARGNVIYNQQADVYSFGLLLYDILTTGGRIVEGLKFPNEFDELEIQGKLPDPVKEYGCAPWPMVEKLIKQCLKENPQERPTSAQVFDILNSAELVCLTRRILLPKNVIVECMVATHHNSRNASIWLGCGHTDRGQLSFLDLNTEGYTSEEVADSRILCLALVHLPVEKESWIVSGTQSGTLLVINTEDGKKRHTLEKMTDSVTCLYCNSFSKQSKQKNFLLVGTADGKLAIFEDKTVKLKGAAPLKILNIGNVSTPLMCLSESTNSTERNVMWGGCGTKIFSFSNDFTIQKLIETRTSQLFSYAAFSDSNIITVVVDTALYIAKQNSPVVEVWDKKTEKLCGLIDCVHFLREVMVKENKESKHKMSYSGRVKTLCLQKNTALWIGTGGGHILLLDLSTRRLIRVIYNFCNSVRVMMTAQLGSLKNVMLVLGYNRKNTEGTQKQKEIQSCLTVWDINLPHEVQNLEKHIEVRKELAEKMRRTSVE

In order of falling Ki:
1. COc1cc(C(=O)N2CCOCC2)c(F)cc1Nc1ncc(C(F)(F)F)c(N2CCC2)n1 [Compound 26, [4-(4-Azetidin-1-yl-5-trifluoromethyl-pyrimidin-2-ylamino)-2-fluoro-5-methoxy-phenyl]-morpholin-4-yl-methanone]  31.5 nM
2. CNc1nc(Nc2cc(F)c(C(=O)N3CCOCC3)cc2F)ncc1C(F)(F)F [Compound 16, [2,5-Difluoro-4-(4-methylamino-5-trifluoromethyl-pyrimidin-2-ylamino)-phenyl]-morpholin-4-yl-methanone]  24.2 nM
3. CCNc1nc(Nc2ccc(C(=O)N3CC[C@H](F)C3)cc2F)ncc1C#N [Compound 98, 4-Ethylamino-2-[2-fluoro-4-((S)-3-fluoro-pyrrolidine-1-carbonyl)-phenylamino]-pyrimidine-5-carbonitrile]  17.5 nM
4. COc1nc(Nc2ccc(C(=O)N3CCOCC3)cc2OCCF)ncc1Cl [Compound 57, [4-(5-Chloro-4-methoxy-pyrimidin-2-ylamino)-3-(2-fluoro-ethoxy)-phenyl]-morpholin-4-yl-methanone]  14.5 nM
5. CNc1nc(Nc2ccc(C(=O)N3CCOCC3)c(F)c2Cl)ncc1C(F)(F)F [Compound 60, [3-Chloro-2-fluoro-4-(4-methylamino-5-trifluoromethyl-pyrimidin-2-ylamino)-phenyl]-morpholin-4-yl-methanone]  14.2 nM
6. CCNc1nc(Nc2cc(OC)c(C(=O)N3CC[C@H](F)C3)cc2Cl)ncc1C#N [Compound 117, 2-[2-Chloro-4-((S)-3-fluoro-pyrrolidine-1-carbonyl)-5-methoxy-phenylamino]-4-ethylamino-pyrimidine-5-carbonitrile]  12.7 nM
7. CNc1nc(Nc2ccc(C(=O)NCC(C)(C)O)c(F)c2OC)ncc1C(F)(F)F [Compound 38, 2-Fluoro-N-(2-hydroxy-2-methyl-propyl)-3-methoxy-4-(4-methylamino-5-trifluoromethyl-pyrimidin-2-ylamino)-benzamide]  11.6 nM
8. CCNc1nc(Nc2cc(OC)c(C(=O)N(C)CC(C)(C)O)cc2F)ncc1C(F)(F)F [Compound 30, 4-(4-Ethylamino-5-trifluoromethyl-pyrimidin-2-ylamino)-5-fluoro-N-(2-hydroxy-2-methyl-propyl)-2-methoxy-N-methyl-benzamide]  7.07 nM
9. CNc1nc(Nc2cc(C)c(C(=O)N3CCOCC3)cc2Cl)ncc1C(F)(F)F [Compound 2, [5-Chloro-2-methyl-4-(4-methylamino-5-trifluoromethyl-pyrimidin-2-ylamino)-phenyl]-morpholin-4-yl-methanone]  7 nM
10. CNc1nc(Nc2cc(F)c(C(=O)N3CCOC(C)(C)C3)cc2OC)ncc1C(F)(F)F [Compound 76, (2,2-Dimethyl-morpholin-4-yl)-[2-fluoro-5-methoxy-4-(4-methylamino-5-trifluoromethyl-pyrimidin-2-ylamino)-phenyl]-methanone]  6.86 nM
11. CNc1nc(Nc2cc(OC)c(C(=O)N3CCN(CCOC)CC3)cc2Cl)ncc1C(F)(F)F [Compound 1, [5-Chloro-2-methoxy-4-(4-methylamino-5-trifluoromethyl-pyrimidin-2-ylamino)-phenyl]-[4-(2-methoxy-ethyl)-piperazin-1-yl]-methanone]  4 nM
12. CCNc1nc(Nc2cc(OCF)c(C(=O)N3CCCC3)cc2F)ncc1C(F)(F)F [Compound 121, [4-(4-Ethylamino-5-trifluoromethyl-pyrimidin-2-ylamino)-5-fluoro-2-fluoromethoxy-phenyl]-pyrrolidin-1-yl-methanone]  3.43 nM
13. CCNc1nc(Nc2cc(F)c(C(=O)N3CCOCC3)cc2C)ncc1C(F)(F)F [Compound 118, [4-(4-Ethylamino-5-trifluoromethyl-pyrimidin-2-ylamino)-2-fluoro-5-methyl-phenyl]-morpholin-4-yl-methanone]  2.76 nM
14. CNc1nc(Nc2cc(C(F)(F)F)c(C(=O)N3CCOCC3)cc2OC)ncc1C(F)(F)F [Compound 67, [5-Methoxy-4-(4-methylamino-5-trifluoromethyl-pyrimidin-2-ylamino)-2-trifluoromethyl-phenyl]-morpholin-4-yl-methanone]  2.53 nM
15. CNc1nc(Nc2ccc(C(=O)N3CCOCC3)cc2OC2CC2)ncc1C(F)(F)F [Compound 77, [3-Cyclopropoxy-4-(4-methylamino-5-trifluoromethyl-pyrimidin-2-ylamino)-phenyl]-morpholin-4-yl-methanone]  1.62 nM
16. CCNc1nc(Nc2cc(OCF)c(C(=O)N3CCOCC3)cc2Cl)ncc1C(F)(F)F [Compound 72, [5-Chloro-4-(4-ethylamino-5-trifluoromethyl-pyrimidin-2-ylamino)-2-fluoromethoxy-phenyl]-morpholin-4-yl-methanone]  1.46 nM
17. CCNc1nc(Nc2cc(F)c(C(=O)NC)cc2OC)ncc1C(F)(F)F [Compound 37, 4-(4-Ethylamino-5-trifluoromethyl-pyrimidin-2-ylamino)-2-fluoro-5-methoxy-N-methyl-benzamide]  1.31 nM
18. CCNc1nc(Nc2cc(C)c(C(=O)N3CCOCC3)cc2F)ncc1C(F)(F)F [Compound 103, [4-(4-Ethylamino-5-trifluoromethyl-pyrimidin-2-ylamino)-5-fluoro-2-methyl-phenyl]-morpholin-4-yl-methanone]  1.23 nM
19. CCNc1nc(Nc2cc(OC)c(C(=O)N3CCC(F)(F)C3)cc2OC)ncc1C(F)(F)F [Compound 56, (3,3-Difluoro-pyrrolidin-1-yl)-[4-(4-ethylamino-5-trifluoromethyl-pyrimidin-2-ylamino)-2,5-dimethoxy-phenyl]-methanone]  1.13 nM
20. CCNc1nc(Nc2cc(F)c(C(=O)N3C[C@@H]4C[C@H]3CO4)cc2OC)ncc1C(F)(F)F [Compound 14, [4-(4-Ethylamino-5-trifluoromethyl-pyrimidin-2-ylamino)-2-fluoro-5-methoxy-phenyl]-(1S,4S)-2-oxa-5-aza-bicyclo[2.2.1]hept-5-yl-methanone]  0.59 nM
21. CCNc1nc(Nc2cc(OC)c(C(=O)N3CCC(F)(F)C3)cc2OCF)ncc1C(F)(F)F [Compound 66, (3,3-Difluoro-pyrrolidin-1-yl)-[4-(4-ethylamino-5-trifluoromethyl-pyrimidin-2-ylamino)-5-fluoromethoxy-2-methoxy-phenyl]-methanone]  0.388 nM
22. [2H]C1([2H])OC([2H])([2H])C([2H])([2H])N(C(=O)c2cc(OC)c(Nc3ncc(C(F)(F)F)c(NC)n3)cc2C)C1([2H])[2H] [Compound 104, (5-methoxy-2-methyl-4-(4-(methylamino)-5-(trifluoromethyl)pyrimidin-2-ylamino)phenyl)(perdeuteromorpholino)methanone]  0.342 nM
23. COc1cc(Nc2ncc(C(F)(F)F)c(NC3CCC3)n2)c(Cl)cc1C(=O)N1CCOCC1 [Compound 113, [5-Chloro-4-(4-cyclobutylamino-5-trifluoromethyl-pyrimidin-2-ylamino)-2-methoxy-phenyl]-morpholin-4-yl-methanone]  0.326 nM
24. COc1cc(C(=O)NCC(C)(C)O)c(F)cc1Nc1ncc(C(F)(F)F)c(NC2CC2)n1 [Compound 45, 4-(4-Cyclopropylamino-5-trifluoromethyl-pyrimidin-2-ylamino)-2-fluoro-N-(2-hydroxy-2-methyl-propyl)-5-methoxy-benzamide]  0.31 nM

Same assay, conditions: Table 6 compounds (formula II/III, fused ring)

In order of falling Ki:
1. CCNc1nc(Nc2ccc(C(=O)N3CCC(F)(F)C3)c3c2OCCO3)ncc1C(F)(F)F [Compound 6]  0.636 nM
2. CNc1nc(Nc2cc(C)c(C(=O)N3CCOCC3)cc2Cl)ncc1C(F)(F)F [Compound 2, [5-Chloro-2-methyl-4-(4-methylamino-5-trifluoromethyl-pyrimidin-2-ylamino)-phenyl]-morpholin-4-yl-methanone]  0.31 nM
